Usually EC50 stands for the concentration at which the effect is half-maximal.

The target of one assay is T1, RORγ-LBD (Homo sapiens, UniProt P51449).
T1 construct: made in house; host or cells: SF9 cells (baculovirus); used as diluted lysate
T1 sequence (P51449 269-508 limits assumed): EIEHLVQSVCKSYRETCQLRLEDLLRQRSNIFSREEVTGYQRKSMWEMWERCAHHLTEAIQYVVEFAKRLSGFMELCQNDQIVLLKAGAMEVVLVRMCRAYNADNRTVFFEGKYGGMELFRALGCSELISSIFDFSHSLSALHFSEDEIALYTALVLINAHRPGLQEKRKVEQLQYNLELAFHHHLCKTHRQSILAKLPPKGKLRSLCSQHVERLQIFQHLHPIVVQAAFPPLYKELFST
The assay can be described thus: RORγ-Ligand Binding Domain (LBD) TR-FRET Assay.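 On TR-FRET Assay Max Response: 665/615 nm signal ratio set to 100 without ursolic acid or test compound.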 The format is biochemical. The conditions noted are these: RORγ-LBD TR-FRET assay; for TR-FRET Assay Max Response: maximum response. In a few lines: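 Compounds, diluted in DMSO and then in assay buffer (1% DMSO final), were combined with His-tagged RORγ-LBD lysate at roughly 3 nM final and a 200 nM biotinylated SRC1 LXXLL peptide. Ursolic acid was included at 2 μM final. Coactivator recruitment was detected by TR-FRET.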
On the technique in general: TR-FRET usually uses a lanthanide donor and a delayed reading to cut background.

Another assay concerns the target T2, Gal4-RORγ-LBD (Homo sapiens, UniProt P51449).
T2 construct: expressed in transfected cells
T2 sequence (P51449 269-508 limits assumed): T1 sequence (P51449 269-508 limits assumed)
The assay can be described thus: Gal4-RORγ Luciferase Reporter Assay in HEK-293T Cells. The format is cell-based. The conditions noted are these: HEK-293 cells, luciferase reporter, in presence of ursolic acid; for Gal4-RORγ Assay Max Response: maximum response. An outline of the steps:
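Max Response was taken as the upper plateau of a 4-parameter logistic fit of luciferase signal, normalized to 100 for wells without ursolic acid or compound. Transiently Gal4-RORγ-LBD/Gal4-luc transfected HEK-293 cells carrying […] ursolic acid were incubated with test compounds (0.2% DMSO) overnight at 37 °C and read with One-Glo.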
(In general: Reporter assays use an easily measured gene product as a stand-in for the process of interest.)

Take `C/C(=C\c1ccc2c(c1)N(S(=O)(=O)c1cccc(C(F)(F)F)c1)C[C@H](CCC(=O)N1CCC1)O2)c1c(F)cccc1Cl` [Example 127H, (S,E)-1-(azetidin-1-yl)-3-(6-(2-(2-chloro-6-fluorophenyl)prop-1-en-1-yl)-4-((3-(trifluoromethyl)phenyl)sulfonyl)-3,4-dihydro-2H-benzo[b][1,4]oxazin-2-yl)propan-1-one]: on RORγ-LBD, the concentration giving a half-maximal response (EC50) is < 500 nM and the “TR-FRET Assay Max Response” value was “*** (a value in the range of greater than 150 to 200)”. Further, at Gal4-RORγ-LBD, the EC50 is < 500 nM and the “Gal4-RORγ Assay Max Response” value is listed as “** (a value in the range of greater than 90 to 150)”.
In the case of `O=C(CC[C@H]1CN(S(=O)(=O)c2cccc(C(F)(F)F)c2)c2cc(/C=C/c3c(F)cccc3Cl)ccc2O1)N1CC2(COC2)C1` [Example 127I, (S,E)-3-(6-(2-chloro-6-fluorostyryl)-4-((3-(trifluoromethyl)phenyl)sulfonyl)-3,4-dihydro-2H-benzo[b][1,4]oxazin-2-yl)-1-(2-oxa-6-azaspiro[3.3]heptan-6-yl)propan-1-one], at RORγ-LBD, the EC50 was < 500 nM and the “TR-FRET Assay Max Response” value was “*** (a value in the range of greater than 150 to 200)”. For the same compound, on Gal4-RORγ-LBD, the EC50 fell in the range of 500 to 5000 nM and the “Gal4-RORγ Assay Max Response” value is “** (a value in the range of greater than 90 to 150)”.
Taken in the same sequence, the figures for `CC(=O)N1CCN(C(=O)CC[C@H]2CN(S(=O)(=O)c3cccc(C(F)(F)F)c3)c3cc(/C=C(\C)c4c(F)cccc4Cl)ccc3O2)CC1` [Example 127J, (S,E)-1-(4-acetyl-piperazin-1-yl)-3-(6-(2-(2-chloro-6-fluorophenyl)prop-1-en-1-yl)-4-((3-(trifluoro-methyl)-phenyl)sulfonyl)-3,4-dihydro-2H-benzo[b]-[1,4]oxazin-2-yl)propan-1-one] were < 500 nM, “*** (a value in the range of greater than 150 to 200)”, < 500 nM and “** (a value in the range of greater than 90 to 150)”.
Taken in the same sequence, the figures for `C/C(=C\c1ccc2c(c1)N(S(=O)(=O)c1cccc(C(F)(F)F)c1)C[C@H](CCC(=O)N1CCC(C(=O)[O-])CC1)O2)c1c(F)cccc1Cl.[Na+]` [Example 128, Sodium Salt of (S,E)-1-(3-(6-(2-(2-Chloro-6-fluorophenyl)prop-1-en-1-yl)-4-((3-(trifluoromethyl)phenyl)sulfonyl)-3,4-dihydro-2H-benzo[b][1,4]oxazin-2-yl)propanoyl)piperidine-4-carboxylic acid] were < 500 nM, “**** (a value greater than 200)”, < 500 nM and “** (a value in the range of greater than 90 to 150)”.
The like results for `O=C(O)C1CCN(C(=O)CC[C@H]2CN(S(=O)(=O)c3cccc(C(F)(F)F)c3)c3cc(/C=C/c4c(Cl)cccc4C(F)(F)F)ccc3O2)CC1` [Example 129A, (S,E)-1-(3-(6-(2-chloro-6-(trifluoromethyl)styryl)-4-((3-(trifluoromethyl)-phenyl)sulfonyl)-3,4-dihydro-2H-benzo[b]-[1,4]oxazin-2-yl)propanoyl)piperidine-4-carboxylic acid] were, in that order, < 500 nM, “**** (a value greater than 200)”, < 500 nM and “** (a value in the range of greater than 90 to 150)”.
With `C/C(=C\c1ccc2c(c1)N(S(=O)(=O)c1cccc(C(F)(F)F)c1)C[C@H](CCC(=O)N1CC[C@@H](C(=O)O)C1)O2)c1c(F)cccc1Cl` [Example 129B, (R)-1-(3-((S)-6-((E)-2-(2-chloro-6-fluorophenyl)-prop-1-en-1-yl)-4-((3-(trifluoromethyl)phenyl)sulfonyl)-3,4-dihydro-2H-benzo[b][1,4]oxazin-2-yl)propanoyl)pyrrolidine-3-carboxylic acid], on RORγ-LBD, the EC50 is < 500 nM and the “TR-FRET Assay Max Response” value is “**** (a value greater than 200)”. At Gal4-RORγ-LBD, the EC50 was < 500 nM and the “Gal4-RORγ Assay Max Response” value is recorded as “** (a value in the range of greater than 90 to 150)”.
As for `C/C(=C\c1ccc2c(c1)N(S(=O)(=O)c1cccc(C(F)(F)F)c1)C[C@H](CCC(=O)N1CC[C@H](C(=O)O)C1)O2)c1c(F)cccc1Cl` [Example 129C, (S)-1-(3-((S)-6-((E)-2-(2-chloro-6-fluorophenyl)-prop-1-en-1-yl)-4-((3-(trifluoromethyl)phenyl)sulfonyl)-3,4-dihydro-2H-benzo[b][1,4]oxazin-2-1)propanoyl)pyrrolidine-3-carboxylic acid], at RORγ-LBD, the EC50 was < 500 nM and the “TR-FRET Assay Max Response” value is “**** (a value greater than 200)”. For the same compound, at Gal4-RORγ-LBD, the EC50 was < 500 nM and the “Gal4-RORγ Assay Max Response” value is on record as “** (a value in the range of greater than 90 to 150)”.
With `C/C(=C\c1ccc2c(c1)N(S(=O)(=O)c1cccc(C(F)(F)F)c1)C[C@H](CCC(=O)N1CC(C(=O)O)C1)O2)c1c(F)cccc1Cl` [Example 129D, (S,E)-1-(3-(6-(2-(2-chloro-6-fluorophenyl)-prop-1-en-1-yl)-4-((3-(trifluoromethyl)phenyl)sulfonyl)-3,4-dihydro-2H-benzo[b][1,4]oxazin-2-yl)propanoyl)azetidine-3-carboxylic acid], on RORγ-LBD, the EC50 is < 500 nM and the “TR-FRET Assay Max Response” value is recorded as “**** (a value greater than 200)”. Further, at Gal4-RORγ-LBD, the 50% effective concentration (EC50) was < 500 nM and the “Gal4-RORγ Assay Max Response” value is reported as “** (a value in the range of greater than 90 to 150)”.
In the case of `C/C(=C\c1ccc2c(c1)N(S(=O)(=O)c1cccc(C(F)(F)F)c1)C[C@H](CCC(=O)NCC(=O)O)O2)c1c(F)cccc1Cl` [Example 129E, (S,E)-(3-(6-(2-(2-chloro-6-fluorophenyl)prop-1-en-1-yl)-4-((3-(trifluoro-methyl)phenyl)sulfonyl)-3,4-dihydro-2H-benzo[b][1,4]oxazin-2-yl)propanoyl)glycine], at RORγ-LBD, the EC50 was < 500 nM and the “TR-FRET Assay Max Response” value is on record as “**** (a value greater than 200)”. Moreover, at Gal4-RORγ-LBD, the EC50 was in the range of 500 to 5000 nM and the “Gal4-RORγ Assay Max Response” value is on record as “** (a value in the range of greater than 90 to 150)”.
Taken in the same sequence, the figures for `C/C(=C\c1ccc2c(c1)N(S(=O)(=O)c1cccc(C(F)(F)F)c1)C[C@H](CCC(=O)N(C)CC(=O)O)O2)c1c(F)cccc1Cl` [Example 129F, (S,E)-N-(3-(6-(2-(2-chloro-6-fluorophenyl)-prop-1-en-1-yl)-4-((3-(trifluoromethyl)phenyl)sulfonyl)-3,4-dihydro-2H-benzo[b][1,4]oxazin-2-yl)propanoyl)-N-methylglycine] were < 500 nM, “*** (a value in the range of greater than 150 to 200)”, < 500 nM and “*** (a value in the range of greater than 150 to 200)”.
In the case of `O=C(O)C1CN(C(=O)CC[C@H]2CN(S(=O)(=O)c3cccc(C(F)(F)F)c3)c3cc(/C=C/c4c(Cl)cccc4C(F)(F)F)ccc3O2)C1` [Example 129G, (S,E)-1-(3-(6-(2-chloro-6-(trifluoromethyl)styryl)-4-((3-(trifluoromethyl)-phenyl)sulfonyl)-3,4-dihydro-2H-benzo[b][1,4]oxazin-2-yl)propanoyl)azetidine-3-carboxylic acid], at RORγ-LBD, the EC50 is < 500 nM and the “TR-FRET Assay Max Response” value was “**** (a value greater than 200)”. Also, at Gal4-RORγ-LBD, the EC50 was < 500 nM and the “Gal4-RORγ Assay Max Response” value is recorded as “** (a value in the range of greater than 90 to 150)”.
Turning to `C/C(=C\c1ccc2c(c1)N(S(=O)(=O)c1cccc(C(F)(F)F)c1)C[C@H](CCC(=O)N1CCC[C@@H]1C(=O)O)O2)c1c(F)cccc1Cl` [Example 129H, (3-((S)-6-((E)-2-(2-chloro-6-fluorophenyl)prop-1-en-1-yl)-4-((3-(trifluoromethyl)phenyl)sulfonyl)-3,4-dihydro-2H-benzo[b][1,4]oxazin-2-yl)propanoyl)-D-proline], on RORγ-LBD, the EC50 was < 500 nM and the “TR-FRET Assay Max Response” value is recorded as “*** (a value in the range of greater than 150 to 200)”. Further, on Gal4-RORγ-LBD, the EC50 was < 500 nM and the “Gal4-RORγ Assay Max Response” value was “*** (a value in the range of greater than 150 to 200)”.
Take `C/C(=C\c1ccc2c(c1)N(S(=O)(=O)c1cccc(C(F)(F)F)c1)C[C@H](CCC(=O)N1CC(C)(C(=O)O)C1)O2)c1c(F)cccc1Cl` [Example 129I, (S,E)-1-(3-(6-(2-(2-chloro-6-fluorophenyl)-prop-1-en-1-yl)-4-((3-(trifluoromethyl)phenyl)sulfonyl)-3,4-dihydro-2H-benzo[b][1,4]oxazin-2-yl)propanoyl)-3-methylazetidine-3-carboxylic acid]: at RORγ-LBD, the EC50 is < 500 nM and the “TR-FRET Assay Max Response” value is on record as “*** (a value in the range of greater than 150 to 200)”. In addition, on Gal4-RORγ-LBD, the EC50 was < 500 nM and the “Gal4-RORγ Assay Max Response” value is “** (a value in the range of greater than 90 to 150)”.

Source of the values: patent US9896441B2 (Lycera Corporation, priority 2014, dated 2018).
